Experimental data from patent publication US20170107207A1, “AMINOPYRAZOLONE DERIVATIVE” (DAIICHI SANKYO COMPANY, LIMITED, priority 2014, published 2017).

How the values were obtained:
TIP48/TIP49 complex = target: T1, TIP48/TIP49 complex (Homo sapiens, UniProt Q9Y230+Q9Y265); experiment: ATPase assay of TIP48/TIP49 complex (ADP-Glo); type: biochemical; details: concentration at which the ATPase activity was inhibited by 50%
T1 construct: made in house; host or cells: E. coli
How it was run: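 Recombinant human TIP48 and TIP49 expressed in E. coli (24.5 μg/mL final) were incubated 1.5 h at room temperature with compound (0.0007–200 μM, 2% DMSO) in Tris-HCl pH 7.5 buffer containing MgCl2 and ATP. ADP formed was detected by ADP-Glo luminescence; inhibition came from dose-response curves.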

BT-474 = experiment: Cell growth inhibition test, BT-474; type: cell-based; details: Homo sapiens, 72 h; BT-474, Breast cancer, 3 days, CellTiter-Glo
Method: (§1) A cell growth inhibition test was carried out by treating a cultured cancer cell line with a test compound for a given period and then counting the number of viable cells by CellTiter-Glo Luminescent Cell Viability Assay (manufactured by Promega Corp.).
(§2) The following cells were inoculated to a 384-well plate containing the compound prepared in advance at predetermined concentrations. […]
(§3) The cells thus inoculated were cultured at 37° C. for 3 days under 5% CO2. […] Then, luminescence intensity was measured using a plate reader.
(§4) The number of viable cells and luminescence intensity have been confirmed to correlate with each other. Therefore, the rate of cell growth was calculated according to the following expression: Rate of cell growth (T/C %) of a test compound-supplemented well=100×[(B−C)/(A−C)] wherein A represents the luminescence intensity (final culture date) of a test compound-free well; B represents the luminescence intensity (final culture date) of a test compound-containing well; and C represents the luminescence intensity (day of cell inoculation) of a well at the start of contact of the cells with the test compound.
(§5) T/C % at the concentration of each of the serially diluted test compounds was determined. […]

PC-3 = experiment: Cell growth inhibition test, PC-3; type: cell-based; details: Homo sapiens, 72 h; PC-3, Prostate cancer, 3 days, CellTiter-Glo
Method: as §1, §2, §3, §4, §5

COLO 829 = experiment: Cell growth inhibition test, COLO 829; type: cell-based; details: Homo sapiens, 72 h; COLO 829, Skin cancer, 3 days, CellTiter-Glo
Method: as §1, §2, §3, §4, §5

T1 sequence (Q9Y230 whole entry): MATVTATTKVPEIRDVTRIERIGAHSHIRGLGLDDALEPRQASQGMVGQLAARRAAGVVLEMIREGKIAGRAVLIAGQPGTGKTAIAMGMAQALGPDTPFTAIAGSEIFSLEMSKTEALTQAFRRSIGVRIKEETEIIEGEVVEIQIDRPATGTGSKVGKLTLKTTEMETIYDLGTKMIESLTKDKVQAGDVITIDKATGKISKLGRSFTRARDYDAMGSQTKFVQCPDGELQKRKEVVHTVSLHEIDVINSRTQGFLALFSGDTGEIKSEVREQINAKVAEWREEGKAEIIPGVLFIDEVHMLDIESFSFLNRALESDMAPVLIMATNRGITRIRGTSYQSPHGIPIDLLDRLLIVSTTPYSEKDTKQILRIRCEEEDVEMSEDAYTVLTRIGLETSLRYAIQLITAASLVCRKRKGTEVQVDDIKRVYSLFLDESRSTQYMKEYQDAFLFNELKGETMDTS
T1 sequence (Q9Y265 whole entry): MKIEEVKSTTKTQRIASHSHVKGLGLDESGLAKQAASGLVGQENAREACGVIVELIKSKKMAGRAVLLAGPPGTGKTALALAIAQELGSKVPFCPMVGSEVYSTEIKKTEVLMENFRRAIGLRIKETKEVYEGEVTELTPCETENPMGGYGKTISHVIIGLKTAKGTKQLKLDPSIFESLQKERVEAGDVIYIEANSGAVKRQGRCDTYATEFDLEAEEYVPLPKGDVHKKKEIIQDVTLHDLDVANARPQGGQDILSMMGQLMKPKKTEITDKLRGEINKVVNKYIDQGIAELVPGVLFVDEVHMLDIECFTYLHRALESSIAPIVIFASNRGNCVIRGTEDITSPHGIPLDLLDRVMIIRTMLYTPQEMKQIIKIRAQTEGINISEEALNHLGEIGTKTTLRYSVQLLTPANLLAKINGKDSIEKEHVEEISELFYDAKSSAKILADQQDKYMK

Structure (SMILES)	IC50 (TIP48/TIP49 complex)	GI50 (BT-474)	GI50 (PC-3)	GI50 (COLO 829)
CCOc1ccc(Cl)cc1C(=O)NCC(C)(C)CC(=O)Nc1c([C@H](C)CN(C)C)n(C)n(-c2ccccc2)c1=O [Example 68, 5-Chloro-N-[4-({5-[(1R)-2-(dimethylamino)-1-methylethyl]-1-methyl-3-oxo-2-phenyl-2,3-dihydro-1H-pyrazol-4-yl}amino)-2,2-dimethyl-4-oxobutyl]-2-ethoxybenzamide]	70 nM	1900 nM	1400 nM	200 nM
CCOc1ncc(Cl)cc1C(=O)NCC(C)(C)CC(=O)Nc1c([C@H](C)CN(C)C)n(C)n(-c2ccccc2)c1=O [Example 73, 5-Chloro-N-[4-({5-[(1R)-2-(dimethylamino)-1-methylethyl]-1-methyl-3-oxo-2-phenyl-2,3-dihydro-1H-pyrazol-4-yl}amino)-2,2-dimethyl-4-oxobutyl]-2-ethoxypyridine-3-carboxamide]	48 nM	5000 nM	1500 nM	480 nM
CCOc1cc(F)c(Cl)cc1C(=O)NCC(C)(C)CC(=O)Nc1c(COC)n(C)n(-c2ccccc2)c1=O [Example 113, 5-Chloro-2-ethoxy-4-fluoro-N-(4-{[5-(methoxymethyl)-1-methyl-3-oxo-2-phenyl-2,3-dihydro-1H-pyrazol-4-yl]amino}-2,2-dimethyl-4-oxobutyl)benzamide]	39 nM	25000 nM	1400 nM	350 nM
